Results from patent US20240008473A1, “DEVICE AND METHOD TO DISTRIBUTE AIR TREATMENT SUBSTANCE” (Discovery Purchaser Corporation, priority 2020, published 2024).

Columns and labels:
[1] = 25° C.; cited from earlier work
[2] = TGA (thermogravimetric analysis) measurements on TFL technical; assay type: physicochemical
Experimental: TGA (Thermogravimetric analysis) measurements were performed on TFL technical (release profile measurements done at isothermal (55° C.) and at constant temperature increase ratio (3K/mn)), and from that, it was discovered that release kinetic at “usual” candle melting temp (50-70° C.) would not allow enough TFL release to get expected efficacy, and that TFL release is not linear. It was determined as well that release onset for TFL is around 100° C. and far higher release ratio occurs at higher temperatures. The calculated estimated ideal temperature for TFL, for outdoor use, from the TGA measurement would be around 150° C.
TGA (Thermal Gravimetric Analysis) for TFL was run, which allows characterization of the release profile of an active ingredient as a function of the temperature. […] Thus, TFL release was pretty low in the range of the “usual candle wax melting temperature”, and it was not be possible to get the needed release rate. (which is the reason why TFL was mainly burnt before being released when incorporated directly into a candle). At such a temperature range, it would hardly possible (considering the potential TFL loading into the candle and candle size) to reach a release above 2-3 mg/h which is far below our 20-25 mg/h needed for outdoor use. • Based on the TGA measurement, it can be seen that to reach the desired 25 mg/h release rate for TFL, the pod temp should be >130-140° C.
(before a typical flame temperature). […] This amount is much lower than the desired 25 mg/h release rate.

[3] = 15 mg flakes, temperature ramp 3K/min, continuous N2-flow

Row | Structure (SMILES) | Vapor pressure [1] [mPa @25 °C] | further results
1 | C/C=C/C1C(C(=O)OCc2c(F)c(F)c(COC)c(F)c2F)C1(C)C (centres unmarked) [Metofluthrin] | 1.96 | 
2 | C#CC(OC(=O)C1C(C=C(C)C)C1(C)C)/C(C)=C/CC (centres unmarked) [Empenthrin] | 15.4 | 
3 | CC(C)=CC1C(C(=O)OCN2C(=O)C3=C(CCCC3)C2=O)C1(C)C (centres unmarked) [Tetramethrin] | 2.11 | 
4 | C#CCC1=C(C)C(OC(=O)C2C(C=C(C)C)C2(C)C)CC1=O (centres unmarked) [Prallethrin] | 0.6 | 
5 | C#CCN1CC(=O)N(COC(=O)[C@@H]2C(C=C(C)C)C2(C)C)C1=O (mixture of isomers) [Imiprothrin] | 1.85 | 
6 | CC=CC1C(C(=O)OCc2c(F)c(F)c(C)c(F)c2F)C1(C)C (centres unmarked) [Profluthrin] | 10.3 | 
7 | CC1(C)[C@H](C=C(Cl)Cl)[C@H]1C(=O)OCc1c(F)c(F)cc(F)c1F [TFL, Transfluthrin] | 2 | complete evaporation [2, 3]: 255 °C; onset of evaporation [2, 3]: around 100 °C; reachable release at usual candle wax melting temperature ([2]; 50-80° C., TFL loaded into candle): 2 to 3 mg/h; release onset for TFL ([2]; TGA on TFL technical, isothermal (55° C.) and 3K/mn ramp): around 100 °C; active ingredient release below 100-110° C. ([2]; TGA, FIG. 9A): very little release; TFL evaporation rate ([2]; at 55° C. candle melting temperature, TGA conditions): < 0.03 mg/h; pod temp to reach the desired 25 mg/h release rate ([2]; based on the TGA measurement): 130-140 °C
